According to patent US20200339691A1, “PROTEINACEOUS MOLECULES AND USES THEREFOR” (priority 2018, published 2020):
Where a SMILES comes first, the peptide text is derived from it. The star is where a group is joined. Myristoyl = CCCCCCCCCCCCCC(=O)*

Key:
MDA-MB-231 cells = assay type: cell-based, human; conditions: 50 μM peptide, 48 hours, n = 1
From the text: (§1) Non-adherent cells were removed during the washing steps.

[1] = test system: CD44^hiCD24^lo CSCs in MDA-MB-231 cells; assay: FACS analysis of CD44^hiCD24^lo cancer stem cells in MDA-MB-231 cells treated with P1 analogues; assay type: cell-based, human; conditions: 50 μM peptide, 48 hours; for CD44^hiCD24^lo CSCs (%) / COI, Live Single CD44^hiCD24^lo CSCs (Cell Count): n = 1; for Average Inhibition of CSCs (%) / CD44^hiCD24^lo CSCs (%) Repeat 1 / CD44^hiCD24^lo CSCs (%) Repeat 2 / CD44^hiCD24^lo CSCs (%) Repeat 3: n = 3
Procedure: Analogues of P1 (Table 6) were designed and synthesized in accordance with the procedure of Example 5. The ability of these analogues to inhibit cancer stem cells was determined using FACS analysis on MDA-MB-231 cells, which constitutively contain approximately 90% CD44^hiCD24^lo cancer stem cells, treated with the peptides.
as §1
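Wherever COI, Live Single Cells (Cell Count) is given: live means Hoechst-negative events among single cells.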

| Structure (SMILES) | COI (Cell Count) (MDA-MB-231 cells) | COI, Live Single Cells (Cell Count) (MDA-MB-231 cells) | COI, Single (Cell Count) (MDA-MB-231 cells) | Total Cell Count (MDA-MB-231 cells) | Inhibition of CSCs (%) Repeat 1 [1] [%] | Inhibition of CSCs (%) Repeat 2 [1] [%] | Inhibition of CSCs (%) Repeat 3 [1] [%] | CD44^hiCD24^lo CSCs (%) [1] [%] | COI, Live Single CD44^hiCD24^lo CSCs (Cell Count) [1] | Average Inhibition of CSCs (%) [1] [%] | CD44^hiCD24^lo CSCs (%) Repeat 1 [1] [%] | CD44^hiCD24^lo CSCs (%) Repeat 2 [1] [%] | CD44^hiCD24^lo CSCs (%) Repeat 3 [1] [%] |
| --- | --- | --- | --- | --- | --- | --- | --- | --- | --- | --- | --- | --- | --- |
| CCCCCCCCCCCCCC(=O)N[C@@H](CC(C)C)C(=O)N[C@H](C(=O)N[C@@H](Cc1ccccc1)C(=O)N[C@H](C(=O)N[C@@H](CC(C)C)C(=O)N[C@@H](CCCNC(=N)N)C(=O)N[C@@H](CC(C)C)C(=O)N[C@@H](CCCNC(=N)N)C(=O)N[C@@H](CCCCN)C(=O)NCC(=O)N[C@@H](CCCNC(=N)N)C(=O)N[C@@H](CCSC)C(=O)N[C@@H](CCSC)C(=O)N[C@@H](CC(=O)O)C(=O)N[C@H](C(=O)N[C@@H](CCCCN)C(=O)N[C@@H](CCCCN)C(N)=O)C(C)C)[C@@H](C)CC)[C@@H](C)O [Peptide 2853816, Myristoyl-LTFILRLRKGRMMDVKK-NH2] (Myristoyl-LTFILRLRKGRMMDVKK-NH2) | 160 | 96 | 130 | 1747 | 69.57 | 68.04 | 65.42 | 12.50 | 12 | 67.68 | 27.27 | 28.67 | 31.03 |
| CCCCCCCCCCCCCC(=O)N[C@@H](CC(C)C)C(=O)N[C@H](C(=O)N[C@@H](Cc1ccccc1)C(=O)N[C@H](C(=O)N[C@@H](Cc1ccccc1)C(=O)N[C@@H](CCC(=O)O)C(=O)N[C@@H](CC(C)C)C(=O)N[C@@H](CCCNC(=N)N)C(=O)N[C@@H](CCCCN)C(=O)NCC(=O)N[C@@H](CCCNC(=N)N)C(=O)N[C@@H](CCSC)C(=O)N[C@@H](CCSC)C(=O)N[C@@H](CC(=O)O)C(=O)N[C@H](C(=O)N[C@@H](CCCCN)C(=O)N[C@@H](CCCCN)C(N)=O)C(C)C)[C@@H](C)CC)[C@@H](C)O [Peptide 2853817, Myristoyl-LTFIFELRKGRMMDVKK-NH2] (Myristoyl-LTFIFELRKGRMMDVKK-NH2) | 511 | 407 | 463 | 899 | 88.00 | 91.08 | 82.27 | 13.76 | 56 | 87.12 | 10.75 | 8.00 | 15.91 |
| CCCCCCCCCCCCCC(=O)N[C@@H](CC(C)C)C(=O)N[C@H](C(=O)N[C@@H](Cc1ccccc1)C(=O)N[C@H](C(=O)N[C@@H](Cc1ccccc1)C(=O)N[C@H](C(=O)N[C@@H](CC(C)C)C(=O)N[C@@H](CCCNC(=N)N)C(=O)N[C@@H](CCCCN)C(=O)NCC(=O)N[C@@H](CCCNC(=N)N)C(=O)N[C@@H](CCSC)C(=O)N[C@@H](CCSC)C(=O)N[C@@H](CC(=O)O)C(=O)N[C@H](C(=O)N[C@@H](CCCCN)C(=O)N[C@@H](CCCCN)C(N)=O)C(C)C)C(C)C)[C@@H](C)CC)[C@@H](C)O [Peptide 2853818, Myristoyl-LTFIFVLRKGRMMDVKK-NH2] (Myristoyl-LTFIFVLRKGRMMDVKK-NH2) | 33 | 20 | 25 | 275 | 88.46 | 97.94 | 93.25 | 25.00 | 5 | 93.21 | 10.34 | 1.85 | 6.06 |
| CCCCCCCCCCCCCC(=O)N[C@@H](CC(C)C)C(=O)N[C@H](C(=O)N[C@@H](Cc1ccccc1)C(=O)N[C@H](C(=O)N[C@@H](Cc1ccccc1)C(=O)N[C@@H](CCCNC(=N)N)C(=O)N[C@@H](Cc1ccccc1)C(=O)N[C@@H](CCCNC(=N)N)C(=O)N[C@@H](CCCCN)C(=O)NCC(=O)N[C@@H](CCCNC(=N)N)C(=O)N[C@@H](CCSC)C(=O)N[C@@H](CCSC)C(=O)N[C@@H](CC(=O)O)C(=O)N[C@H](C(=O)N[C@@H](CCCCN)C(=O)N[C@@H](CCCCN)C(N)=O)C(C)C)[C@@H](C)CC)[C@@H](C)O [Peptide 2853819, Myristoyl-LTFIFRFRKGRMMDVKK-NH2] (Myristoyl-LTFIFRFRKGRMMDVKK-NH2) | 563 | 191 | 372 | 4572 | 98.02 | 89.55 | 93.19 | 2.62 | 5 | 93.59 | 1.78 | 9.38 | 6.11 |
| CCCCCCCCCCCCCC(=O)N[C@@H](CC(C)C)C(=O)N[C@H](C(=O)N[C@@H](Cc1ccccc1)C(=O)N[C@H](C(=O)N[C@@H](Cc1ccccc1)C(=O)N[C@@H](CCCNC(=N)N)C(=O)N[C@H](C(=O)N[C@@H](CCCNC(=N)N)C(=O)N[C@@H](CCCCN)C(=O)NCC(=O)N[C@@H](CCCNC(=N)N)C(=O)N[C@@H](CCSC)C(=O)N[C@@H](CCSC)C(=O)N[C@@H](CC(=O)O)C(=O)N[C@H](C(=O)N[C@@H](CCCCN)C(=O)N[C@@H](CCCCN)C(N)=O)C(C)C)C(C)C)[C@@H](C)CC)[C@@H](C)O [Peptide 2853820, Myristoyl-LTFIFRVRKGRMMDVKK-NH2] (Myristoyl-LTFIFRVRKGRMMDVKK-NH2) | 541 | 211 | 346 | 3098 | 89.75 | 90.39 | 91.76 | 6.64 | 14 | 90.63 | 9.19 | 8.62 | 7.40 |
| CCCCCCCCCCCCCC(=O)N[C@@H](CC(C)C)C(=O)N[C@H](C(=O)N[C@@H](Cc1ccccc1)C(=O)N[C@H](C(=O)N[C@@H](Cc1ccccc1)C(=O)N[C@@H](CCCNC(=N)N)C(=O)N[C@@H](CCC(=O)O)C(=O)N[C@@H](CCCNC(=N)N)C(=O)N[C@@H](CCCCN)C(=O)NCC(=O)N[C@@H](CCCNC(=N)N)C(=O)N[C@@H](CCSC)C(=O)N[C@@H](CCSC)C(=O)N[C@@H](CC(=O)O)C(=O)N[C@H](C(=O)N[C@@H](CCCCN)C(=O)N[C@@H](CCCCN)C(N)=O)C(C)C)[C@@H](C)CC)[C@@H](C)O [Peptide 2853821, Myristoyl-LTFIFRERKGRMMDVKK-NH2] (Myristoyl-LTFIFRERKGRMMDVKK-NH2) | 2756 | 2223 | 2240 | 7421 | 85.54 | 87.64 | 89.89 | 13.00 | 289 | 87.69 | 12.96 | 11.09 | 9.08 |
| CCCCCCCCCCCCCC(=O)N[C@@H](CC(C)C)C(=O)N[C@H](C(=O)N[C@@H](Cc1ccccc1)C(=O)N[C@H](C(=O)N[C@@H](Cc1ccccc1)C(=O)N[C@@H](CCCNC(=N)N)C(=O)N[C@@H](CCCCN)C(=O)N[C@@H](CCCNC(=N)N)C(=O)N[C@@H](CCCCN)C(=O)NCC(=O)N[C@@H](CCCNC(=N)N)C(=O)N[C@@H](CCSC)C(=O)N[C@@H](CCSC)C(=O)N[C@@H](CC(=O)O)C(=O)N[C@H](C(=O)N[C@@H](CCCCN)C(=O)N[C@@H](CCCCN)C(N)=O)C(C)C)[C@@H](C)CC)[C@@H](C)O [Peptide 2853822, Myristoyl-LTFIFRKRKGRMMDVKK-NH2] (Myristoyl-LTFIFRKRKGRMMDVKK-NH2) | 768 | 648 | 657 | 3204 | 81.93 | 81.80 | 81.03 | 4.78 | 31 | 81.59 | 16.19 | 16.33 | 17.02 |
| CCCCCCCCCCCCCC(=O)N[C@@H](CC(C)C)C(=O)N[C@H](C(=O)N[C@@H](Cc1ccccc1)C(=O)N[C@H](C(=O)N[C@@H](Cc1ccccc1)C(=O)N[C@@H](CCCNC(=N)N)C(=O)N[C@@H](CC(C)C)C(=O)N[C@@H](CCC(=O)O)C(=O)N[C@@H](CCCCN)C(=O)NCC(=O)N[C@@H](CCCNC(=N)N)C(=O)N[C@@H](CCSC)C(=O)N[C@@H](CCSC)C(=O)N[C@@H](CC(=O)O)C(=O)N[C@H](C(=O)N[C@@H](CCCCN)C(=O)N[C@@H](CCCCN)C(N)=O)C(C)C)[C@@H](C)CC)[C@@H](C)O [Peptide 2853823, Myristoyl-LTFIFRLEKGRMMDVKK-NH2] (Myristoyl-LTFIFRLEKGRMMDVKK-NH2) | 672 | 608 | 626 | 1209 | 80.72 | 81.08 | 82.74 | 3.62 | 22 | 81.52 | 17.28 | 16.97 | 15.49 |
